This passage reports IC50 results from the Kinase Knowledgebase extract (Sharma et al. 2016).

Assay [1] deals with CDK2 (human) (UniProt P24941). Put plainly: Cell-Based Assay.
Assay [2] concerns the target CDK2 (human) (UniProt P24941). Put plainly: Enzyme Assay.
Assay [3] deals with CDK2 (human) (UniProt P24941). Put plainly: Cell-Based Assay. As to conditions: rko.

`CNS(=O)(=O)Cc1ccc(NN=C2C(=O)Nc3ccc4ncccc4c32)cc1`: the IC50 against CDK2 (human) [1] (hdf-3) worked out at 3050 nM; against CDK2 (human) [1] (rko), 3050 nM; against CDK2 (human) [2], 5.5 nM.

As for `CS(=O)(=O)Cc1ccc(N/C=C2\C(=O)Nc3ccc4ncsc4c32)cc1`, the IC50 at CDK2 (human) [1] (hdf-3) stood at 3050 nM; against CDK2 (human) [1] (mes/sa) it was 3050 nM; against CDK2 (human) [1] (rko), 3050 nM; against CDK2 (human) [2] it was 30.5 nM.

Take `CN(C)S(=O)(=O)c1ccc(N/C=C2\C(=O)Nc3ccc(-c4cnco4)cc32)cc1`: the IC50 at CDK2 (human) [1] (rko) was 3050 nM; against CDK2 (human) [2], 5.5 nM; on CDK2 (human) [3], 3050 nM.

In the case of `CNS(=O)(=O)Cc1ccc(NN=C2C(=O)Nc3cc(C)c(O)c(C)c32)cc1`, the 50% inhibitory concentration (IC50) against CDK2 (human) [1] (hdf) was 800 nM; against CDK2 (human) [1] (hdf-3), 3050 nM; on CDK2 (human) [1] (rko), 300 nM; against CDK2 (human) [2] it was 75.5 nM; on CDK2 (human) [3] it was 300 nM.

Regarding `CN(C)S(=O)(=O)c1ccc(N/C=C2/C(=O)Nc3ccc(-c4cnco4)cc32)cc1`, the concentration for half-maximal inhibition (IC50) against CDK2 (human) [1] (mda-mb-468) is over 5000 nM.

On to `CCC(C)Cc1cccc2c1C(=NNc1ccc(S(N)(=O)=O)cc1)C(=O)N2` (configuration not stated), for which the IC50 on CDK2 (human) [1] (hdf-3) worked out at 3050 nM; on CDK2 (human) [1] (rko), 3050 nM; on CDK2 (human) [2], 5.5 nM.

For the molecule `NS(=O)(=O)c1ccc(NN=C2C(=O)Nc3ccc(-c4cnco4)cc32)cc1`, the IC50 at CDK2 (human) [1] (hdf) turned out to be 3050 nM; at CDK2 (human) [1] (hdf-3), 800 nM; at CDK2 (human) [1] (mes/sa), 300 nM; at CDK2 (human) [1] (rko), 800 nM; against CDK2 (human) [2] it was 5.5 nM; against CDK2 (human) [3], 800 nM.

Consider `O=C1Nc2ccc3ncsc3c2/C1=C/Nc1ccc2nn[nH]c2c1`, for which the IC50 was 3050 nM against CDK2 (human) [1] (mda-mb-468) and 30.5 nM against CDK2 (human) [2].
